According to BindingDB's records for doi:10.1016/j.bmcl.2009.08.023 (Roche Palo Alto, 2009):

Target: Genome polyprotein (Hepatitis C virus genotype 1b (isolate Con1), UniProt Q9WMX2)
Test: Inhibition of […] 1b con1 NS5B polymerase assessed as [3H]UTP incorporation into acid insoluble RNA product

Chain of Genome polyprotein (Q9WMX2 2420-3010 limits assumed): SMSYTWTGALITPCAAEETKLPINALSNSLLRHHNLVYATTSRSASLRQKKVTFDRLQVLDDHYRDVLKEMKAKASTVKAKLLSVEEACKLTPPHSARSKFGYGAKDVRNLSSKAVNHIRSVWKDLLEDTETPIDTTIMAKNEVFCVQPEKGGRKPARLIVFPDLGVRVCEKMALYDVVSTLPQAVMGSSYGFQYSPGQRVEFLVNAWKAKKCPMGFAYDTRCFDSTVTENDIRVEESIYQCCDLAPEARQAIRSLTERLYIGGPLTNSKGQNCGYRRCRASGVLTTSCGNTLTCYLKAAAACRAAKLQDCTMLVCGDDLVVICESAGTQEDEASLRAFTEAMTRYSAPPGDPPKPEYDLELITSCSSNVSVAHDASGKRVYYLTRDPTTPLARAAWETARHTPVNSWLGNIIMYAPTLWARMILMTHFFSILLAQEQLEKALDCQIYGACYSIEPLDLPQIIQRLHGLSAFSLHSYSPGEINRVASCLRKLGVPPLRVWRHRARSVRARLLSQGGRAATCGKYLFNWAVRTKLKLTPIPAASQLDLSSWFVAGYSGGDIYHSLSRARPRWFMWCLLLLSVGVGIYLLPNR

IC50 [nM]	Compound
13	CC(C)(C)[C@H]1C(=O)C(C2=Nc3ccc(NS(C)(=O)=O)cc3S(=O)(=O)C2)C(=O)N1Cc1ccc(F)cc1F (stereo partly drawn) [N-{3-[(S)-5-tert-Butyl-1-(2,4-difluoro-benzyl)-4-hydroxy-2-oxo-2,5-dihydro-1H-pyrrol-3-yl]-1,1-dioxo-1,4-dihydro-1lambda*6*-benzo[1,4]thiazin-7-yl}-methanesulfonamide]
5	CC(C)CCN1C(=O)C(C2=Nc3ccc(NS(C)(=O)=O)cc3S(=O)(=O)C2)C(=O)[C@@H]1C(C)(C)C (stereo partly drawn) [N-{3-[(S)-5-tert-Butyl-4-hydroxy-1-(3-methyl-butyl)-2-oxo-2,5-dihydro-1H-pyrrol-3-yl]-1,1-dioxo-1,4-dihydro-1lambda*6*-benzo[1,4]thiazin-7-yl}-methanesulfonamide]
8	CC(C)(C)[C@H]1C(=O)C(C2=Nc3ccc(NS(C)(=O)=O)cc3S(=O)(=O)C2)C(=O)N1Cc1ccccc1 (stereo partly drawn) [N-[3-((S)-1-Benzyl-5-tert-butyl-4-hydroxy-2-oxo-2,5-dihydro-1H-pyrrol-3-yl)-1,1-dioxo-1,4-dihydro-1lambda*6*-benzo[1,4]thiazin-7-yl]-methanesulfonamide]
4	COc1cc(CN2C(=O)C(C3=Nc4ccc(NS(C)(=O)=O)cc4S(=O)(=O)C3)C(=O)[C@@H]2C(C)(C)C)ccc1F (stereo partly drawn) [N-{3-[(S)-5-tert-Butyl-1-(4-fluoro-3-methoxy-benzyl)-4-hydroxy-2-oxo-2,5-dihydro-1H-pyrrol-3-yl]-1,1-dioxo-1,4-dihydro-1lambda*6*-benzo[1,4]thiazin-7-yl}-methanesulfonamide]
5	CC(C)(C)[C@H]1C(=O)C(C2=Nc3ccc(NS(C)(=O)=O)cc3S(=O)(=O)C2)C(=O)N1Cc1ccc(F)c(Cl)c1 (stereo partly drawn) [N-{3-[(S)-5-tert-Butyl-1-(3-chloro-4-fluoro-benzyl)-4-hydroxy-2-oxo-2,5-dihydro-1H-pyrrol-3-yl]-1,1-dioxo-1,4-dihydro-1lambda*6*-benzo[1,4]thiazin-7-yl}-methanesulfonamide]
8	CC(C)(C)CCN1C(=O)C(C2=Nc3ccc(NS(C)(=O)=O)cc3S(=O)(=O)C2)C(=O)[C@@H]1C(C)(C)C (stereo partly drawn) [N-{3-[(S)-5-tert-Butyl-1-(3,3-dimethyl-butyl)-4-hydroxy-2-oxo-2,5-dihydro-1H-pyrrol-3-yl]-1,1-dioxo-1,4-dihydro-1lambda*6*-benzo[1,4]thiazin-7-yl}-methanesulfonamide]
4	CC(=O)C1C(C2C(=O)[C@H](C(C)(C)C)N(Cc3ccc(F)cc3)C2=O)=Nc2ccc(NS(C)(=O)=O)cc2S1(=O)=O (stereo partly drawn) [N-{2-Acetyl-3-[(S)-5-tert-butyl-1-(4-fluoro-benzyl)-4-hydroxy-2-oxo-2,5-dihydro-1H-pyrrol-3-yl]-1,1-dioxo-1,4-dihydro-1lambda*6*-benzo[1,4]thiazin-7-yl}-methanesulfonamide]
